From patent publication US7598245B2 (Vertex Pharmaceuticals Incorporated, priority 2003, dated 2009)

Legend:
Format in all cases: biochemical
[1] = target: T1, Aurora-2 (Homo sapiens, UniProt O14965); experiment: Inhibition of AUR-2, coupled enzyme assay
T1 construct: addition of 10 μL of Aurora-2 stock solution to give a final concentration of 70 nM
T1 sequence (O14965 1-403): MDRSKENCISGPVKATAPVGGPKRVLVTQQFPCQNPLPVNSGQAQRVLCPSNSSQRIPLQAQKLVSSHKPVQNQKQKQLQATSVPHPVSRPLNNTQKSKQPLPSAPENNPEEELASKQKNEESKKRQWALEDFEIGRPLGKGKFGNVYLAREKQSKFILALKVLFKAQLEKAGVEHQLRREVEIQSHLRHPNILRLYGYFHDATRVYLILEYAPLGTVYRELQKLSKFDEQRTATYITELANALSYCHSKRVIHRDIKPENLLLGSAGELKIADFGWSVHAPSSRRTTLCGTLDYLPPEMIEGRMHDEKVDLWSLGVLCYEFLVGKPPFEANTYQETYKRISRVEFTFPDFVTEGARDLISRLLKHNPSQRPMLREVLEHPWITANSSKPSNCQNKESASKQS
Method: Compounds are screened in the following manner for their ability to inhibit Aurora-2 using a standard coupled enzyme assay (Fox et al (1998) Protein Sci 7, 2249). To an assay stock buffer solution containing 0.1M HEPES 7.5, 10 mM MgCl2, 1 mM DTT, 25 mM NaCl, 2.5 mM phosphoenolpyruvate, […], 30 mg/ml pyruvate kinase, 10 mg/ml lactate dehydrogenase, 40 mM ATP, and 800 μM peptide (LRRASLG, American Peptide, Sunnyvale, Calif.) is added a DMSO solution of a compound of the present invention to a final concentration of 30 μM. The resulting mixture is incubated at 30° C. for 10 min. The reaction was initiated by the addition of 10 μL of Aurora-2 stock solution to give a final concentration of 70 nM in the assay. The rates of reaction are obtained by monitoring absorbance at 340 nm over a 5 minute read time at 30° C. using a BioRad Ultramark plate reader (Hercules, Calif.). The Ki values are determined from the rate data as a function of inhibitor concentration.

[2] = target: T2, human Src kinase (Homo sapiens, UniProt P12931); experiment: Src inhibition assay B: spectrophotometric (uv-vis) coupled enzyme assay; conditions: 100 μM ATP
T2 construct: 25 nM of recombinant human Src kinase
Method: The compounds are evaluated as inhibitors of human Src kinase using either a radioactivity-based assay or spectrophotometric assay.
Src Inhibition Assay B: Spectrophotometric Assay
The ADP produced from ATP by the human recombinant Src kinase-catalyzed phosphorylation of poly Glu-Tyr substrate is quantified using a coupled enzyme assay [Fox et al. Protein Sci. 1998, 7, 2249]. In this assay one molecule of NADH is oxidised to NAD for every molecule of ADP produced in the kinase reaction. The disappearance of NADH is conveniently followed at 340 nm.
The following are the final concentrations of the assay components: 0.025 M HEPES (pH 7.6), 10 mM MgCl2, 2 mM DTT, 0.25 mg/ml poly Glu-Tyr, and 25 nM of recombinant human Src kinase. Final concentrations of the components of the coupled enzyme system are 2.5 mM phosphoenolpyruvate, 200 μM NADH, 30 μg/ml pyruvate kinase and 10 μg/ml lactate dehydrogenase.
In a typical assay, all the reaction components with the exception of ATP are pre-mixed and aliquoted into assay plate wells. Inhibitors dissolved in DMSO are added to the wells to give a final DMSO concentration of 2.5%. The assay plate is incubated at 30° C. for 10 min before initiating the reaction with 100 μM ATP. The absorbance change at 340 nm with time, the rate of the reaction, is monitored on a molecular devices plate reader. The data of rate as a function of the inhibitor concentration is fitted to competitive inhibition kinetics model to get the Ki for the compound.

[3] = target: T3, PDK-1 (Homo sapiens, UniProt O15530); experiment: PDK-1 inhibition, radioactive-phosphate incorporation assay; conditions: 40 μM ATP
T3 sequence (O15530 1-556): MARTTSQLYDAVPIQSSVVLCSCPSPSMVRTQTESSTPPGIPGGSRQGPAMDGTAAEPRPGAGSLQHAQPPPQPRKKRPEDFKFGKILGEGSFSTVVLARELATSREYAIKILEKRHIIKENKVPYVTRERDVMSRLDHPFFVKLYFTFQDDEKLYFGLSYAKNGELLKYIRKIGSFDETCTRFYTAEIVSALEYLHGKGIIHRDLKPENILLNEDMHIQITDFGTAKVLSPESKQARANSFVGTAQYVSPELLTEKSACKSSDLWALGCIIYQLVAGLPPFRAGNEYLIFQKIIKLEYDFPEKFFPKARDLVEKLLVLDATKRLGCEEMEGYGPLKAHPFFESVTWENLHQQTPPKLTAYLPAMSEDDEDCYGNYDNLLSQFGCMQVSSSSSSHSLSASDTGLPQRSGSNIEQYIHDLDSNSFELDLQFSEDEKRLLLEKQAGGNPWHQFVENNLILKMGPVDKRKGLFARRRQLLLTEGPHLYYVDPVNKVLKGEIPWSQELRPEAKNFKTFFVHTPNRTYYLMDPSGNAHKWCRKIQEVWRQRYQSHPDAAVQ
Method: Compounds were screened for their ability to inhibit PDK-1 using a radioactive-phosphate incorporation assay (Pitt and Lee, J. Biomol. Screen., (1996) 1, 47). Assays were carried out in a mixture of 100 mM HEPES (pH 7.5), 10 mM MgCl2, 25 mM NaCl, 2 mM DTT. Final substrate concentrations in the assay were 40 μM ATP (Sigma Chemicals) and 65 μM peptide (PDKtide, Upstate, Lake Placid, N.Y.). Assays were carried out at 30° C. and 25 nM PDK-1 in the presence of ˜27.5 nCi/μL of [γ-^32P]ATP (Amersham Pharmacia Biotech, Amersham, UK). An assay stock buffer solution was prepared containing all of the reagents listed above, with the exception of ATP, and the test compound of interest. 15 μl of the stock solution was placed in a 96 well plate followed by addition of 1 μl of 0.5 mM DMSO stock containing the test compound (final compound concentration 25 μM, final DMSO concentration […]). The plate was preincubated for about 10 minutes at 30° C. and the reaction initiated by addition of 4 μl ATP (final concentration 40 μM).
The reaction was stopped after 10 minutes by the addition of 100 μL 100 mM phosphoric acid, 0.01% Tween-20. A phosphocellulose 96 well plate (Millipore, Cat no. MAPHNOB50) was pretreated with 100 μL 100 mM phosphoric acid, 0.01% Tween-20 prior to the addition of the reaction mixture (100 μL). The spots were left to soak for at least 5 minutes, prior to wash steps (4×200 μL 100 mM phosphoric acid, 0.01% Tween-20). After drying, 20 μL Optiphase ‘SuperMix’ liquid scintillation cocktail (Perkin Elmer) was added to the well prior to scintillation counting (1450 Microbeta Liquid Scintillation Counter, Wallac).

[4] = target: T4, JAK-3 (Homo sapiens, UniProt P52333); experiment: JAK3 inhibition assay (ELISA, Poly (Glu, Ala, Tyr) coated plates); conditions: 2 μM ATP
T4 sequence (P52333 1-1124): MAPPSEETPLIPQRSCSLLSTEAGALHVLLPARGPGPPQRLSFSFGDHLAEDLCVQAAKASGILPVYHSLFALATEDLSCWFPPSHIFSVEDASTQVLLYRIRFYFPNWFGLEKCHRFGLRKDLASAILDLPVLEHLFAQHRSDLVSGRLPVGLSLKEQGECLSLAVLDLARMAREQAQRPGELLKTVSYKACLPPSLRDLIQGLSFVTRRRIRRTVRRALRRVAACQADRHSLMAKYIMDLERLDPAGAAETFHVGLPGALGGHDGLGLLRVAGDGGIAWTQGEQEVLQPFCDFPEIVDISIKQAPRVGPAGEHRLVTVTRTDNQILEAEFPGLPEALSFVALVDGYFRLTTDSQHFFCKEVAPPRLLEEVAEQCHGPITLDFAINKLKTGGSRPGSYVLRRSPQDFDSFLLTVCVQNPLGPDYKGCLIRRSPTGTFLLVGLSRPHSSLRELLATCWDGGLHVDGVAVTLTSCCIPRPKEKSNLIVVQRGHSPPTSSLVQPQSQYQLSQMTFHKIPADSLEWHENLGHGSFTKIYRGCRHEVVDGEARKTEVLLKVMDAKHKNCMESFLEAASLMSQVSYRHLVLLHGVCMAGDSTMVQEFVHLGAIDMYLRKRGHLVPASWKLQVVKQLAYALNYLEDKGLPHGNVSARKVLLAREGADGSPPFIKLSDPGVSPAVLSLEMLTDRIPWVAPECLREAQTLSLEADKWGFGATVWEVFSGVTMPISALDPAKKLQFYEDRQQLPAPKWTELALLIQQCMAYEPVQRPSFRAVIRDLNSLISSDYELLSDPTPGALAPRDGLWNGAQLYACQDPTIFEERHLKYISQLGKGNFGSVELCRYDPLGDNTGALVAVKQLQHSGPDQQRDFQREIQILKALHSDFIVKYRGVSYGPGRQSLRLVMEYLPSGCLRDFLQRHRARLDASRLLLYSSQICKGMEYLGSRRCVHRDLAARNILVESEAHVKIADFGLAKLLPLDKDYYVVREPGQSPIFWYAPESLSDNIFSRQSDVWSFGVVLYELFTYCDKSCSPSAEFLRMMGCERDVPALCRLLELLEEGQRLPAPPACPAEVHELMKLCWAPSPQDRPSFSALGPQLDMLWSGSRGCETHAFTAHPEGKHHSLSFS
Method: Compound inhibition of JAK was assayed by the method described by G. R. Brown, et al, Bioorg. Med. Chem. Lett. 2000, vol. 10, pp 575-579 in the following manner. Into Maxisorb plates, previously coated at 4° C. with Poly (Glu, Ala, Tyr) 6:3:1 then washed with phosphate buffered saline 0.05% and Tween-(PBST), was added 2 μM ATP, 5 mM MgCl2, and a solution of compound in DMSO. The reaction was started with JAK enzyme and the plates incubated for 60 minutes at 30° C. The plates were then washed with PBST, 100 μL HRP-Conjugated 4G10 antibody was added, and the plate incubated for 90 minutes at 30° C. The plate was again washed with PBST, 100 μL TMB solution is added, and the plates were incubated for another 30 minutes at 30° C. Sulfuric acid (100 μL of 1M) was added to stop the reaction and the plate is read at 450 nm to obtain the optical densities for analysis to determine Ki values.

T2 sequence (P12931 whole entry): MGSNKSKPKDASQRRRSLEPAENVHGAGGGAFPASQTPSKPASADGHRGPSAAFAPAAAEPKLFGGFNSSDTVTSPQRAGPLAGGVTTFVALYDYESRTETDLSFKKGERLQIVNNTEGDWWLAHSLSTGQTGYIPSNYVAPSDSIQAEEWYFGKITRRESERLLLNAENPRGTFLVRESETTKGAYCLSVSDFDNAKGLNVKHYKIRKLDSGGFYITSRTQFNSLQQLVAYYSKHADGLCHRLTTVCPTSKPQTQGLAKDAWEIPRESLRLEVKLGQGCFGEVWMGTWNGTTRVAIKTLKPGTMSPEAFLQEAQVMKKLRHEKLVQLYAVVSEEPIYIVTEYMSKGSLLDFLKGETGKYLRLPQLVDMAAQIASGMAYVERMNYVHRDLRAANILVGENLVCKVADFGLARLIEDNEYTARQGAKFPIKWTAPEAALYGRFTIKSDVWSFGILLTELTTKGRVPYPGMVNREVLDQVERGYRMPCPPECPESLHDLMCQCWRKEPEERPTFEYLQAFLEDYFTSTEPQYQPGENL

Ki [1] [nM] | Ki [2] [nM] | Ki [3] [nM] | Ki [4] [nM] | Compound
– | > 1000 | – | – | CC1CCCCN1c1cc(-n2cnc(Nc3ccccc3)n2)ccn1 (centres unmarked) [Compound I-126, [1-(2-methyl-3,4,5,6-tetrahydro-2H-[1,2′]bipyridinyl-4′-yl)-1H-[1,2,4]triazol-3-yl]-phenyl-amine]
– | > 1000 | – | > 1000 | CN(c1cc(-n2cnc(Nc3ccccc3)n2)ccn1)C1CCCCC1 [Compound I-133]

Further lines, the compound ahead of its results:

Compound | Ki [1] [nM] | Ki [2] [nM] | Ki [3] [nM] | Ki [4] [nM]
c1ccc(Nc2ncn(-c3cc(N[C@H]4CCCNC4)ncn3)n2)cc1 [Compound I-103, [6-(3-Phenylamino-[1,2,4]triazol-1-yl)-pyrimidin-4-yl]-piperidin-3-yl-amine] | 100 to 1000 | < 500 | < 1000 | –
NS(=O)(=O)c1ccc(Nc2ncn(-c3ccnc(N[C@H]4CCCNC4)c3)n2)cc1 [Compound I-104, 3-(S)-{4-[3-(4-Sulfamoyl-phenylamino)-[1,2,4]triazol-1-yl]-pyridin-2-ylamino}-piperidine] | – | – | < 1000 | –
CCCN(CC1CC1)c1cc(-n2cnc(Nc3ccccc3)n2)ccn1 [Compound I-125, cyclopropylmethyl-[4-(3-phenylamino-[1,2,4]triazol-1-yl)-pyridin-2-yl]-propyl-amine] | – | > 1000 | – | –
